Where a name gives a salt, the structure may show the parent alone.
Tests used:
[1] = background statement; cited from earlier work
[2] = format: physicochemical
Procedure: The salt of the active ingredient, corresponding to an amount of free base present in a final batch size of 1 kg was dissolved in 100 ml of purified water. 120 ml of purified water was placed in a 600 ml beaker and stirred. While stirring, 3 g of MAS was added in small portions to obtain a dispersion. The amount of MAS used is a part of the total amount of MAS to be used in the formulation. Once the MAS was dispersed, tannic acid was added to the mixture and stirred to form a uniform dispersion. Three different batches of the MAS/tannic acid dispersion in purified water were prepared for each active. In the three batches, the amount of tannic acid used in the batch may vary from an amount equal to that of the free base, to two time to three times that of the free base present in the initial salt solution.
The salt solution was then added in small portions, under light stirring, to the MAS/Tannic acid dispersion. After all of the salt solution was added, the volume was made up to 250 ml with purified water and stirring was continued for a period of 10 minutes.
The MAS was used in this step to serve as an adherent or a solid support for the tannic acid molecules to facilitate the conversion process.

| Compound | solubility in water [1] | further results |
| --- | --- | --- |
| CNC[C@H](O)c1cccc(O)c1 [Phenylephrine hydrochloride] | freely soluble | – |
| COc1ccc(CN(CCN(C)C)c2ccccn2)cc1 [Pyrilamine hydrochloride, N-[(4-methoxyphenyl)methyl]-N′,N′-dimethyl- -N-2-pyridinyl-1,2-ethanediamine] | freely soluble | – |
| COc1ccc(CN(CCN(C)C)c2ccccn2)cc1 [maleate salt, N-[(4-methoxyphenyl)methyl]-N′,N′-dimethyl- -N-2-pyridinyl-1,2-ethanediamine] | slightly soluble | – |
| CNC[C@H](O)c1cccc(O)c1 [phenylephrine] | – | solubility of the tannate salt in purified water [2]: partial solubility |
| COc1ccc(CN(CCN(C)C)c2ccccn2)cc1 [pyrilamine] | – | precipitate formation on addition to MAS/tannic acid dispersion ([2]; purified water, at all three concentrations of tannic acid (1x, 2x, 3x the free base)): copious amounts of precipitate |
